Data taken from paper PMC5856786, “A DHODH inhibitor increases p53 synthesis and enhances tumor cell killing by p53 degradation blockage” (Nature Communications, 2018).

Assays:
MV411 cells = assay: PI flow cytometry, sub-G1 cells, MV411; format: cell-based; conditions: DMSO 72 h + 48 h, 2 μM nutlin-3a last 48 h
Protocol: (§1) Cell cycle distribution analysis was performed on a Becton Dickinson FACScan flow cytometer or FACSCalibur (BD Biosciences) following staining with propidium iodide (PI) or dual labeling with BrdU and PI[36]. These assays were analyzed using CellQuest Pro (BD Biosciences).

U2OS cells [1] = assay: Annexin V/PI apoptosis flow cytometry; format: cell-based; conditions: HZ05 72 h, washed, nutlin-3a 48 h
Protocol: Fig. 7 HZ05 increases p53 levels in S-phase cells. a U2OS cells were treated with DMSO (vehicle) or HZ05 (1 μM) for 72 h. The upper left panel is a representative dot plot showing the gating strategy for cells expressing high p53 levels (blue: HZ05 treated and red: DMSO treated). […] A representative histogram of the fluorescence intensity of FITC-p53 in S-phase cells is shown in the lower right panel. Bar graphs show the average of three independent experiments. Unpaired t-test was employed to assess statistical significance using GraphPad Prism version 7 (****p < 0.0001 and ***p < 0.001). b U2OS cells were pretreated with HZ05 for 72 h, washed with medium containing DMSO or nutlin-3a, and then provided with fresh medium containing DMSO or nutlin-3a. After an additional 48 h, Annexin V and PI staining was analyzed by flow cytometry. The average of two independent experiments ± SD is shown. c Hypothetical model describing the combination of DHODH inhibition with mdm2 antagonists. […] Inhibition of p53 degradation in the form of an mdm2 antagonist leads to death of cells in S-phase
For the detection of apoptotic cells, the Annexin V-FITC Apoptosis detection kit (Ab#14085) was used with analysis conducted using FlowJo software V10.2.

HNDF cells = assay: PI flow cytometry, sub-G1 cells, HNDF; format: cell-based, human; conditions: DMSO 72 h + 48 h, 2 μM nutlin-3a last 48 h
Protocol: as §1

ARN8 cells = assay: PI flow cytometry, sub-G1 cells, ARN8; format: cell-based, human; conditions: ARN8 72 h
Protocol: as §1

U2OS cells [2] = assay: PI flow cytometry, sub-G1 cells, U2OS; format: cell-based; conditions: DMSO 72 h + 48 h, 2 μM nutlin-3a last 48 h
Protocol: as §1

ARN8 xenograft = assay: ARN8 subcutaneous xenograft; format: in vivo; conditions: ARN8 xenograft; (R)-HZ05 75 mg/kg q.d. s.c. or nutlin-3a 50 mg/kg b.i.d. orally
Protocol: All animal xenograft experiments were approved by the Norwegian Animal Research Authority and conducted according to The European Convention for the Protection of Vertebrates Used for Scientific Purposes. […] The health status and weight of the mice were monitored daily and they were randomized in a non-blinded manner into 4 groups when tumor volumes reached 30–40 mm^3. […] Tumor volumes were measured every second day by a digital caliper using the following ellipsoid formula: Volume = π (length × width × height)/6.
To determine the efficacy of (R)-HZ05 in combination with nutlin-3a, 4 groups of NSG mice (n = 8 per group) were subcutaneously injected in the flank region with a single 100 μL injection of 2 × 10^6 ARN8 cells in a solution of PBS:Matrigel (volume ratio 3:1). Treatment was initiated when tumors reached ~50 mm^3. The maximum tolerated dose for this combination of drugs was previously determined for the strain we used. The endpoint of the experiment was determined by the tumor size ([…]) weight loss, and general condition of the mice according to The Norwegian Animal Research Authority.

[3] = Pharmacokinetic study, nutlin-3a single or co-administered with (R)-HZ05; format: in vivo, NOD-SCID mice; conditions: mice; nutlin-3a 50 mg kg-1 oral + (R)-HZ05 75 mg kg-1 s.c.
Protocol: collected from the retro-orbital plexus of three mice per group per time point at the following times: pre-dose, 0.08, 0.25, 0.5, 1, 2, 4, 8, and 24 h. Samples were collected into tubes with 20 % potassium-EDTA solution. Plasma was separated at 4000 rpm for 10 minutes at 4 °C and stored at -70 °C until analysis. 25 µL of study sample or spiked plasma calibration standards were added to individual tubes followed by 100 µL of Glipizide at 500 ng mL-1 as an internal standard. Samples were centrifuged at 4000 rpm at 4 °C for 10 minutes. 100 µL of cleared supernatant was transferred to 96-well plates and analyzed using a Waters ACQUITY UPLC connected to an AB Sciex API 4000 QTRAP in MRM mode with positive electrospray ionization with an ion spray voltage of 5500 V. The mobile phase was A: 0.1 % formic acid in acetonitrile and B: 0.1 % formic acid in water through a phenomenex Kinetex EVO C18 (5 µm, 100 × 4.6 mm) kept at 45 °C. […]
Samples were centrifuged at 4000 rpm at 4 °C for 10 minutes. 100 µL of cleared supernatant was transferred to 96-well plates and analyzed using a Waters ACQUITY UPLC connected to an AB Sciex API 4000 QTRAP in MRM mode with positive electrospray ionization with an ion spray voltage of 5500 V. The mobile phase was A: 0.1 % formic acid in acetonitrile and B: 0.1 % formic acid in water through a phenomenex Kinetex EVO C18 (5 µm, 100 × 4.6 mm) kept at 45 °C. […]

In the case of `COc1ccc(C2=N[C@@H](c3ccc(Cl)cc3)[C@@H](c3ccc(Cl)cc3)N2C(=O)N2CCNC(=O)C2)c(OC(C)C)c1` [nutlin-3a, reference compound], the sub-G1 cells (MV411 cells) is reported as 37.2%, the “effect of nutlin-3a after HZ05 pre-treatment and wash-out” value (U2OS cells [1]) is reported as “triggered cell death” and the sub-G1 cells (HNDF cells) is reported as 1.2%. For the same compound, the “DMSO control subtracted effect (cells in sub-G1)” value (shortened to “DMSO control subtracted effect”) (ARN8 cells; HZ05 0 nM + nutlin-3a 5 µM) was 0.05, the “DMSO control subtracted effect” value (ARN8 cells; HZ05 0 nM + nutlin-3a 10 µM) was 0.07 and the “DMSO control subtracted effect” value (ARN8 cells; HZ05 0 nM + nutlin-3a 15 µM) was 0.12. For the same compound, the “DMSO control subtracted effect” value (ARN8 cells; HZ05 0 nM + nutlin-3a […]) was 0.10, the sub-G1 cells (ARN8 cells; nutlin-3a 1 μM) was 0.8% and the sub-G1 cells (ARN8 cells; nutlin-3a 2.5 μM) was 1.59%. The sub-G1 cells (ARN8 cells; nutlin-3a 5 μM) was 3.52%, the sub-G1 cells (U2OS cells [2]) was 1.1% and the “xenograft tumor growth, single agent” value (ARN8 xenograft) was “ineffective”. For the same compound, the “half-life on co-administration with (R)-HZ05” value [3] was “not prolonged”.
